Read-outs that look alike come from different tables or passages of the source. Each block holds one compound with its values, some of them ahead of it.
Columns and labels:
[1] = biological target: EGFR WT (Homo sapiens, UniProt P00533); assay: KINOMEscan competition binding assay, EGFR WT
[2] = system: p-EGFR, p-AKT; assay: Western blotting of downstream signaling; format: cell-based
[3] = biological target: T1, WT EGFR (Homo sapiens, UniProt P00533); assay: Western blotting of WT EGFR protein in H1299 cells; format: cell-based; conditions: 8 h serum-free, 16 h treatment
[4] = system: H3255 cells; assay: Cell proliferation assay; format: cell-based; conditions: 3 days
[5] = system: p-EGFR, p-AKT; assay: Western blotting of downstream signaling; format: cell-based; remark: listed apart in the source
[6] = biological target: EGFR e19d (EGFR mutant with exon 19 deletion) (Homo sapiens, UniProt P00533, DEL746-750); assay: Western blotting of EGFR protein in HCC-827 cells; format: cell-based; conditions: for time after washout at which the EGFR protein level was recovered: 12 h degrader treatment, then washout; for maximum EGFR protein degradation: at a concentration as low as 50 nM, 16 h; for hook effect: highest concentration 10 μM (PROTAC3: 1 and 10 μM)
[7] = biological target: T2, EGFR L858R (Homo sapiens, UniProt P00533, L858R); assay: Western blotting of EGFR protein in H3255 cells; format: cell-based; conditions: for reversibility of EGFR degradation upon washout / maximum EGFR protein degradation / hook effect / effect on mutant EGFR protein level: H3255 cells; for reversibility of EGFR degradation upon washout: 12 h degrader treatment, then washout; for maximum EGFR protein degradation: at a concentration as low as 50 nM, 16 h; for hook effect: highest concentration 10 μM (PROTAC3: 1 and 10 μM); for effect on mutant EGFR protein level: 8 h serum-free, 16 h treatment, gefitinib at 1 μM
[8] = biological target: T1, WT EGFR; assay: Western blotting of WT EGFR protein in OVCAR-8 cells; format: cell-based; conditions: 8 h serum-free, 16 h treatment
[9] = in vivo; conditions: male, Swiss Albino, mouse, ip, 50 mg/kg
[10] = biological target: EGFR (Homo sapiens, UniProt P00533, DEL746-750); assay: Global label-free quantitative proteomics in HCC-827 cells; format: cell-based; conditions: HCC-827 cells starved 8 h; 100 nM for 16 h
[11] = Mouse pharmacokinetic study; conditions: mice; single IP injection 50 mg/kg
[12] = biological target: T2, EGFR L858R; assay: KINOMEscan competition binding assay, EGFR L858R; conditions: EGFR L858R mutant
[13] = biological target: T1, WT EGFR; conditions: previous finding; cited from earlier work
[14] = 100 nM, after 8 h serum starvation
[15] = HCC-827 cells, 12 h degrader treatment, then washout
[16] = HCC-827 cells, 16 h treatment, gefitinib at 1 μM
[17] = H3255 cells, 16 h treatment, gefitinib at 1 μM

Compound: COc1cc2ncnc(Nc3ccc(F)c(Cl)c3)c2cc1OCCCN1CCN(C(=O)CCCCCCCCCC(=O)N[C@H](C(=O)N2C[C@H](O)C[C@H]2C(=O)NCc2ccc(-c3scnc3C)cc2)C(C)(C)C)CC1 [Compound 6, (2S,4R)-1-((S)-2-(11-(4-(3-((4-((3-Chloro-4-fluorophenyl)amino)-7-methoxyquinazolin-6-yl)oxy)propyl)piperazin-1-yl)-11-oxounde-canamido)-3,3-dimethylbutanoyl)-4-hydroxy-N-(4-(4-methylthiazol-5-yl)benzyl)pyrrolidine-2-carboxamide]
- weaker binding affinity compared to gefitinib [1]: approximately 10 fold
- effect on AKT protein levels [2]: did not affect the AKT protein levels
- inhibition of EGFR autophosphorylation (p-EGFR) and AKT phosphorylation (p-AKT) [2]: potently inhibited
- time after washout at which p-AKT was recovered [2]: 48 h
- time after washout at which p-EGFR was recovered [2]: 24 h
- treatment time at which robust inhibition of p-AKT was observed [2]: 1 h
- effect on WT EGFR protein levels [3]: did not significantly reduce the WT EGFR protein levels
- cell growth inhibition [4]: effectively inhibited the growth of H3255 cells
- potency at cell growth inhibition compared with PROTAC3 [4]: more potent than the previously reported PROTAC3
- potency at cell growth inhibition compared with gefitinib [4]: less potent
- effect on AKT protein levels [5]: did not affect the AKT protein levels
- inhibition of EGFR autophosphorylation (p-EGFR) and AKT phosphorylation (p-AKT) [5]: potently inhibited
- treatment time to near-complete / maximum EGFR degradation [6, 14]: around 12 h
- time after washout at which the EGFR protein level was recovered [6]: 24 h
- maximum EGFR protein degradation [6]: over 95%
- hook effect [6]: slight “hook effect”
- reversibility of EGFR degradation upon washout [7]: reversible
- maximum EGFR protein degradation [7]: over 95%
- hook effect [7]: undetectable
- effect on WT EGFR protein levels [8]: did not significantly reduce the WT EGFR protein levels
- concentration at 24 h [9]: ~1000 nM
- EGFR protein degraded [10]: Over 75%
- plasma concentration maintained over 8 h [11]: approximately 5 μM
- tolerability [11]: well tolerated, and no clinical signs were observed
- weaker binding affinity compared to gefitinib [12]: approximately 10 fold

Compound: COc1cc2ncnc(Nc3ccc(F)c(Cl)c3)c2cc1OCCCN1CCN(CCC(=O)NCCCCCCCCOc2cccc3c2C(=O)N(C2CCC(=O)NC2=O)C3=O)CC1 (centres unmarked) [Compound 10, 3-(4-(3-((4-((3-Chloro-4-fluorophenyl)amino)-7-methoxyquinazolin-6-yl)oxy)propyl)piperazin-1-yl)-N-(8-((2-(2,6-dioxopiperidin-3-yl)-1,3-dioxoisoindolin-4-yl)oxy)octyl)propanamide]
- effect on AKT protein levels ([2]; HCC-827 cells): did not affect the AKT protein levels
- time after washout at which p-AKT was recovered [2, 15]: 48 h
- time after washout at which p-EGFR was recovered [2, 15]: 24 h
- inhibition of EGFR autophosphorylation (p-EGFR) and AKT phosphorylation (p-AKT) [2, 16]: potently inhibited
- effect on WT EGFR protein levels [3]: did not significantly reduce the WT EGFR protein levels
- cell growth inhibition [4]: inhibited the growth of H3255 cell
- potency at cell growth inhibition compared with PROTAC3 [4]: not as potent as compound 6 and PROTAC3
- potency at cell growth inhibition compared with gefitinib [4]: less potent
- effect on AKT protein levels ([5]; H3255 cells): did not affect the AKT protein levels
- inhibition of EGFR autophosphorylation (p-EGFR) and AKT phosphorylation (p-AKT) [5, 17]: potently inhibited
- time to reduce the half-maximum of the EGFR protein level [6, 14]: 3.5 h
- treatment time to near-complete / maximum EGFR degradation [6, 14]: 12 h
- time after washout at which the EGFR protein level was recovered [6]: 24 h
- maximum EGFR protein degradation [6]: over 95%
- hook effect [6]: slight “hook effect”
- reversibility of EGFR degradation upon washout [7]: reversible
- maximum EGFR protein degradation [7]: over 95%
- hook effect [7]: undetectable
- effect on WT EGFR protein levels [8]: did not significantly reduce the WT EGFR protein levels
- EGFR protein degraded [10]: Over 75%
- highest plasma concentration [11]: approximately 500 nM
- time post dosing of the highest plasma concentration [11]: 8 h
- tolerability [11]: well tolerated, and no clinical signs were observed
- weaker binding affinity compared to gefitinib [12]: 5 fold

- effect of 2 h pretreatment on EGFR degradation induced by compound 6 [7]: blocked
Compound: COc1cc2ncnc(Nc3ccc(F)c(Cl)c3)c2cc1OCCCN1CCN(C(=O)CCCCCCCCCC(=O)N[C@H](C(=O)N2C[C@@H](O)C[C@@H]2C(=O)NCc2ccc(-c3scnc3C)cc2)C(C)(C)C)CC1 [Compound 27, (2R,4S)-1-((S)-2-(11-(4-(3-((4-((3-Chloro-4-fluorophenyl)amino)-7-methoxyquinazolin-6-yl)oxy)propyl)piperazin-1-yl)-11-oxoundecanamido)-3,3-dimethylbutanoyl)-4-hydroxy-N-(4-(4-methylthiazol-5-yl)benzyl)pyrrolidine-2-carboxamide]
- inhibition of EGFR autophosphorylation (p-EGFR) and AKT phosphorylation (p-AKT) [2]: lower potency
- inhibition of EGFR autophosphorylation (p-EGFR) and AKT phosphorylation (p-AKT) [5]: lower potency
- effect on mutant EGFR protein level [7]: did not significantly induce the degradation of EGFR mutants

Compound: COc1cc2ncnc(Nc3ccc(F)c(Cl)c3)c2cc1OCCCN1CCN(CCC(=O)NCCCCCCCCOc2cccc3c2C(=O)N(C2CCC(=O)N(C)C2=O)C3=O)CC1 (centres unmarked) [Compound 28, 3-(4-(3-((4-((3-Chloro-4-fluorophenyl)amino)-7-methoxyquina-zolin-6-yl)oxy)propyl)piperazin-1-yl)-N-(8-((2-(1-methyl-2,6-dioxopiperidin-3-yl)-1,3-dioxoisoindolin-4-yl)oxy)octyl)propanamide]
- inhibition of EGFR autophosphorylation (p-EGFR) and AKT phosphorylation (p-AKT) [2, 16]: lower potency
- inhibition of EGFR autophosphorylation (p-EGFR) and AKT phosphorylation (p-AKT) [5, 17]: lower potency
- effect on mutant EGFR protein level [7]: did not significantly induce the degradation of EGFR mutants

Compound: COc1cc2ncnc(Nc3ccc(F)c(Cl)c3)c2cc1OCCCCCOCCOCCC(=O)N[C@H](C(=O)N1C[C@H](O)C[C@H]1C(=O)NCc1ccc(-c2scnc2C)cc1)C(C)(C)C [PROTAC3, reference compound]
- potency at cell growth inhibition compared with gefitinib [4]: less potent
- hook effect [6]: much more significant hook effect
- hook effect [7]: much more significant hook effect
- degradation of the WT EGFR [13]: did not degrade the WT EGFR

Compound: Cc1ncsc1-c1ccc(CNC(=O)[C@@H]2C[C@@H](O)CN2C(=O)[C@@H](NC(=O)C2(C#N)CC2)C(C)(C)C)cc1 [VH-298, reference compound]
- effect of 2 h pretreatment on EGFR degradation induced by compound 6 [7]: blocked

Compound: O=C1CCC(N2C(=O)c3ccccc3C2=O)C(=O)N1 (centres unmarked) [thalidomide, reference compound]
- effect of 2 h pretreatment on EGFR degradation induced by compound 10 [7]: blocked

— article PMC7318554 (Journal of medicinal chemistry, 2020)
